pIC50: −log10 of the molar value. Like-named read-outs stand apart in the source and are kept apart here. Positions of bridges follow the written chain, without caps; N, C: chain ends. Non-standard residues stand in square brackets, D forms with d. Residues, ends and D or L forms follow the SMILES beside them. ξ: configuration not given here. Ala(indol-4-yl) = N[C@@H](Cc1cccc2[nH]ccc12)C(=O)O; Phe(3-CF3) = N[C@@H](Cc1cccc(C(F)(F)F)c1)C(=O)O; Phe(4-CH2NH2) = NCc1ccc(C[C@H](N)C(=O)O)cc1; Bta = N[C@@H](Cc1csc2ccccc12)C(=O)O; Hyp = O=C(O)[C@@H]1C[C@@H](O)CN1; NMeF = CN[C@@H](Cc1ccccc1)C(=O)O; NMeNle = CCCC[C@H](NC)C(=O)O; NMeS = CN[C@@H](CO)C(=O)O; NMeA = CN[C@@H](C)C(=O)O; ξC = NC(CS)C(=O)O; Sar = CNCC(=O)O
Experiments:
Human PD-L1/PD-1 = molecular target: T1, Human PD-L1/PD-1 (Homo sapiens, UniProt Q9NZQ7); test: HTRF PD-1-Ig/PD-L1-His binding assay (human PD-L1)
T1 construct: made in house; host or cells: HEK293T
T1 sequence (Q9NZQ7 with tags, fused parts or gaps): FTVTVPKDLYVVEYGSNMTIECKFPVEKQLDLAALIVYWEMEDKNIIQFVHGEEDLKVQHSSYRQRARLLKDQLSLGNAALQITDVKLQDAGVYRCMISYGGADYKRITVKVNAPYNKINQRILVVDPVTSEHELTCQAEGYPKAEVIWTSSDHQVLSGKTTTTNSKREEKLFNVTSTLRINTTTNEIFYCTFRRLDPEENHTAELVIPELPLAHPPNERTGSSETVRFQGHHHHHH
In short: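 Steps: truncated PD-1-Ig and PD-L1-His fusions are incubated in dPBS containing 0.1% (w/v) BSA and 0.05% (v/v) Tween-20. Detection antibodies are then added (Eu cryptate anti-Ig at 1 nM final, APC anti-His at 20 nM final), and time-resolved FRET is measured.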

[1] = molecular target: T2, LK35.2-hPD-L1 cells / PE-labeled PD-1-Ig (Homo sapiens, UniProt Q9NZQ7); test: LK35.2-hPD-L1 cell binding high-content screening assay; format: cell-based
T2 construct: expressed in transfected cells; host or cells: LK35.2 mouse B cell line
T2 sequence (Q9NZQ7 19-290): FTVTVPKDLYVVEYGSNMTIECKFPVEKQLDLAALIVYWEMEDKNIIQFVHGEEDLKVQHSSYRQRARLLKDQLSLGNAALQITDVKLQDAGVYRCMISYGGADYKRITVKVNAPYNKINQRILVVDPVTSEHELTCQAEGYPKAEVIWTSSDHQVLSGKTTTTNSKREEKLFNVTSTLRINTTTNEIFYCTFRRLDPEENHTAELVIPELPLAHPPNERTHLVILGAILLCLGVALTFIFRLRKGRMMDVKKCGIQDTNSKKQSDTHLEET
In short: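 Using overnight-cultured LK35.2-hPD-L1 mouse B cells, compound was co-incubated with phycoerythrin-tagged human PD-1-Ig (final 1 nM) at 37 °C for one hour. Unbound label was removed by triple dPBS washing prior to high-content image acquisition and analysis.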

[2] = cluster symbol, read-out: HTRF IC50 cluster
[3] = cluster symbol, cell line of CBA not given (LK35.2-hPD-L1 or 293T-hPD-L1), read-out: CBA IC50 cluster
[4] = cell binding assay, cell line not given, cluster symbol, read-out: CBA IC50 cluster

Compound	pIC50 (Human PD-L1/PD-1; [2])	pIC50 [1, 3]	pIC50 [1, 4]	also measured
CCCC[C@H]1C(=O)N(C)CC(=O)N[C@@H](CC(=O)O)C(=O)N[C@@H](C(C)C)C(=O)N(C)[C@@H](Cc2ccccc2)C(=O)N[C@@H](Cc2ccc(O)cc2)C(=O)N(C)CC(=O)N[C@@H](Cc2c[nH]c3ccccc23)C(=O)N[C@@H](Cc2ccc(O)cc2)C(=O)N[C@@H](CC(C)C)C(=O)N[C@H](C(=O)NCC(N)=O)CSCC(=O)N[C@@H](Cc2cccc(C(F)(F)F)c2)C(=O)N(C)[C@@H](Cc2ccccc2)C(=O)N1C [Example 3106] ({CH2CO}-[Phe(3-CF3)][NMeF][NMeNle][Sar]DV[NMeF]Y[Sar]WYLCG-NH2; thioether N-13)	< 7.52	7.14 to 8.32	–	–
CCCC[C@H]1C(=O)N(C)[C@@H](CCCC)C(=O)N[C@@H](CCCN)C(=O)N[C@H](C(=O)NCC(N)=O)CSCC(=O)N[C@@H](Cc2ccc(O)cc2)C(=O)N(C)[C@@H](C)C(=O)N[C@@H](CC(N)=O)C(=O)N2CCC[C@H]2C(=O)N[C@@H](Cc2cnc[nH]2)C(=O)N[C@@H](CC(C)C)C(=O)N2C[C@H](O)C[C@H]2C(=O)N[C@@H](Cc2c[nH]c3ccccc23)C(=O)N[C@@H](CO)C(=O)N[C@@H](Cc2c[nH]c3ccccc23)C(=O)N1C [Example 1123]	8.17 to 9.41	8.33 to 9.80	–	–
CCCC[C@H]1C(=O)N(C)[C@@H](CCCC)C(=O)N[C@@H](CCCNC(=N)N)C(=O)N[C@H](C(=O)NCC(N)=O)CSCC(=O)N[C@@H](Cc2ccc(CN)cc2)C(=O)N(C)[C@@H](C)C(=O)N[C@@H](CC(N)=O)C(=O)N2CCC[C@H]2C(=O)N[C@@H](Cc2cnc[nH]2)C(=O)N[C@@H](CC(C)C)C(=O)N2C[C@H](O)C[C@H]2C(=O)N[C@@H](Cc2c[nH]c3ccccc23)C(=O)N[C@@H](CO)C(=O)N[C@@H](Cc2c[nH]c3ccccc23)C(=O)N1C [Example 7053] ({CH2CO}-[Phe(4-CH2NH2)][NMeA]NPHL[Hyp]WSW[NMeNle][NMeNle]RCG-NH2; thioether N-14)	7.52 to 8.17	–	7.14 to 8.32	–
CCCC[C@H]1C(=O)N2CCC[C@@H]2C(=O)N[C@@H](CCCN)C(=O)N[C@H](C(=O)NCC(N)=O)CSCC(=O)N[C@@H](Cc2ccc(O)cc2)C(=O)N(C)[C@@H](C)C(=O)N[C@@H](CC(N)=O)C(=O)N2CCC[C@H]2C(=O)N[C@@H](Cc2cnc[nH]2)C(=O)N[C@@H](CC(C)C)C(=O)N2CCC[C@H]2C(=O)N[C@@H](Cc2c[nH]c3ccccc23)C(=O)N[C@@H](CO)C(=O)N[C@@H](Cc2c[nH]c3ccccc23)C(=O)N1C [Example 5011] (HELM PEPTIDE1{[O=C(C[*:3])[*:2]].Y.[meA].N.P.H.L.P.W.S.W.[CCCC[C@@H](C(=O)[*:2])N(C)[*:1]].[dP].[Orn].C.G.[am]}$PEPTIDE1,PEPTIDE1,1:R3-15:R3$$$V2.0)	7.52 to 8.17	–	7.14 to 8.32	–
CCCC[C@H]1C(=O)N(C)CC(=O)N[C@@H](CC(=O)O)C(=O)N[C@@H]([C@@H](C)OC)C(=O)N(C)[C@@H](Cc2ccccc2)C(=O)N[C@@H](Cc2ccc(O)cc2)C(=O)N(C)CC(=O)N[C@@H](Cc2c[nH]c3ccccc23)C(=O)N[C@@H](Cc2ccc(O)cc2)C(=O)N[C@@H](CC(C)C)C(=O)N[C@H](C(=O)NCC(N)=O)CSCC(=O)N[C@@H](Cc2ccccc2)C(=O)N(C)[C@@H](Cc2ccccc2)C(=O)N1C [Example 3157] ({CH2CO}-F[NMeF][NMeNle][Sar]DT(Me)[NMeF]Y[Sar]WYLCG-NH2; thioether N-13)	7.52 to 8.17	7.14 to 8.32	–	–
CCCC[C@H]1C(=O)N(C)[C@@H](CCCC)C(=O)N[C@@H](CCCNC(=N)N)C(=O)NC(C(=O)NCC(N)=O)CSCC(=O)N[C@@H](Cc2ccc(O)cc2)C(=O)N(C)[C@@H](C)C(=O)N[C@@H](CC(N)=O)C(=O)N2CCC[C@H]2C(=O)N[C@@H](Cc2cnc[nH]2)C(=O)N[C@@H](CO)C(=O)N2C[C@H](O)C[C@H]2C(=O)N[C@@H](Cc2c[nH]c3ccccc23)C(=O)N[C@@H](CO)C(=O)N[C@@H](Cc2csc3ccccc23)C(=O)N1C (stereo partly shown) [Example 9070] ({CH2CO}-Y[NMeA]NPHS[Hyp]WS[Bta][NMeNle][NMeNle]R[ξC]G-NH2; thioether N-14)	7.52 to 8.17	–	8.33 to 9.80	–
CCCC[C@H]1C(=O)N(C)CC(=O)N[C@@H](CC(=O)O)C(=O)N[C@@H](C(C)C)C(=O)N(C)[C@@H](Cc2ccccc2)C(=O)N[C@@H](Cc2ccc(O)cc2)C(=O)N(C)CC(=O)N[C@@H](Cc2c[nH]c3ccccc23)C(=O)N[C@@H](Cc2ccc(O)cc2)C(=O)N[C@@H](CC(C)C)C(=O)N[C@H](C(=O)NCC(N)=O)CSCC(=O)N[C@@H](Cc2ccccc2)C(=O)N(C)[C@@H](Cc2cccc3ccccc23)C(=O)N1C (single isomer, unassigned) [Example 3585-B]	7.52 to 8.17	–	7.14 to 8.32	–
CCCC[C@H]1C(=O)N(C)[C@@H](CCCC)C(=O)N[C@@H](CCCNC(=N)N)C(=O)N[C@H](C(=O)NCC(N)=O)CSCC(=O)N[C@@H](Cc2ccccc2)C(=O)N(C)[C@@H](C)C(=O)N[C@@H]([C@@H](C)O)C(=O)N2CCC[C@H]2C(=O)N[C@@H](Cc2cnc[nH]2)C(=O)N[C@@H](CC(C)C)C(=O)N(C)CC(=O)N[C@@H](Cc2c[nH]c3ccccc23)C(=O)N[C@@H](CO)C(=O)N[C@@H](Cc2c[nH]c3ccccc23)C(=O)N1C [Example 5020] ({CH2CO}-F[NMeA]TPHL[Sar]WSW[NMeNle][NMeNle]RCG-NH2; thioether N-14)	< 7.52	–	< 7.13	–
CCCC[C@H]1C(=O)N(C)[C@@H](CCCC)C(=O)N[C@@H](CCCN)C(=O)N[C@H](C(=O)NCC(N)=O)CSCC(=O)N[C@@H](Cc2ccc(O)cc2)C(=O)N2C[C@H](N)C[C@H]2C(=O)N[C@@H](CC(N)=O)C(=O)N2CCC[C@H]2C(=O)N[C@@H](Cc2cnc[nH]2)C(=O)N[C@@H](CC(C)C)C(=O)N2C[C@H](O)C[C@H]2C(=O)N[C@@H](Cc2c[nH]c3ccccc23)C(=O)N[C@@H](CO)C(=O)N[C@@H](Cc2c[nH]c3ccccc23)C(=O)N1C [Example 1192]	–	–	–	pIC50 (Human PD-L1/PD-1; read-out: HTRF IC50 value): 8.17; pIC50 ([1]; cell line of CBA not given (LK35.2-hPD-L1 or 293T-hPD-L1), read-out: CBA IC50 value): 7.67
CCCC[C@H]1C(=O)N(C)[C@@H](CCCC)C(=O)N[C@@H](CCCNC(=N)N)C(=O)N[C@H](C(=O)NCC(N)=O)CSCC(=O)N[C@@H](Cc2cccc3[nH]ccc23)C(=O)N(C)[C@@H](C)C(=O)N[C@@H](CC(N)=O)C(=O)N2CCC[C@H]2C(=O)N[C@@H](Cc2cnc[nH]2)C(=O)N[C@@H](CC(C)C)C(=O)N(C)CC(=O)N[C@@H](Cc2c[nH]c3ccccc23)C(=O)N[C@@H](CO)C(=O)N[C@@H](Cc2c[nH]c3ccccc23)C(=O)N1C [Example 1094] ({CH2CO}-[Ala(indol-4-yl)][NMeA]NPHL[Sar]WSW[NMeNle][NMeNle]RCG-NH2; thioether N-14)	7.52 to 8.17	8.33 to 9.80	–	–
CCCC[C@H]1C(=O)N(C)CC(=O)N[C@@H](CC(=O)O)C(=O)N[C@@H](C(C)C)C(=O)N(C)[C@@H](Cc2ccccc2)C(=O)N[C@H](Cc2ccc(O)cc2)C(=O)N(C)CC(=O)N[C@@H](Cc2c[nH]c3ccccc23)C(=O)N[C@H](Cc2ccc(O)cc2)C(=O)N[C@@H](CC(C)C)C(=O)N[C@H](C(=O)NCC(N)=O)CSCC(=O)N[C@@H](Cc2ccccc2)C(=O)N(C)[C@@H](Cc2ccccc2)C(=O)N1C [Example 3564] (HELM PEPTIDE1{[O=C(C[*:3])[*:2]].F.[meF].[CCCC[C@@H](C(=O)[*:2])N(C)[*:1]].[Sar].D.V.[meF].[dY].[Sar].W.[dY].L.C.G.[am]}$PEPTIDE1,PEPTIDE1,1:R3-14:R3$$$V2.0)	–	–	–	pIC50 (Human PD-L1/PD-1; value given instead of cluster, read-out: HTRF IC50 value): < 5.00; pIC50 ([1]; cell binding assay, cell line not given, value given instead of cluster, read-out: CBA IC50 value): < 5.00
CCCC[C@H]1C(=O)N[C@@H](CCCNC(=N)N)C(=O)NC(C(=O)NCC(N)=O)CSCC(=O)N[C@@H](Cc2ccc(O)cc2)C(=O)N(C)[C@@H](C)C(=O)N[C@@H](CC(N)=O)C(=O)N2CCC[C@H]2C(=O)N[C@@H](Cc2cnc[nH]2)C(=O)N[C@@H](CC(C)C)C(=O)N2C[C@H](O)C[C@H]2C(=O)N[C@@H](Cc2c[nH]c3ccccc23)C(=O)N[C@@H](CO)C(=O)N[C@@H](Cc2csc3ccccc23)C(=O)N(C)[C@@H](COCC)C(=O)N1C (stereo partly shown) [Example 9045] ({CH2CO}-Y[NMeA]NPHL[Hyp]WS[Bta][NMeS](Et)[NMeNle]R[ξC]G-NH2; thioether N-14)	8.17 to 9.41	–	8.33 to 9.80	–
CCCC[C@@H]1NC(=O)CSC[C@@H](C(=O)NCC(N)=O)NC(=O)[C@H](CC(C)C)NC(=O)[C@H](Cc2ccc(O)cc2)NC(=O)[C@H](Cc2c[nH]c3ccccc23)NC(=O)CN(C)C(=O)[C@H](Cc2ccc(O)cc2)NC(=O)[C@H](Cc2ccccc2)N(C)C(=O)[C@H](C(C)C)NC(=O)[C@H](CC(=O)O)NC(=O)CN(C)C(=O)[C@H](CCCC)N(C)C(=O)[C@H](Cc2ccccc2)N(C)C1=O [Example 3171] (HELM PEPTIDE1{[O=C(C[*:3])[*:2]].[Nle].[meF].[CCCC[C@@H](C(=O)[*:2])N(C)[*:1]].[Sar].D.V.[meF].Y.[Sar].W.Y.L.C.G.[am]}$PEPTIDE1,PEPTIDE1,1:R3-14:R3$$$V2.0)	< 7.52	< 7.13	–	–
CCCC[C@H]1C(=O)N2CCC[C@@H]2C(=O)N2CCC[C@H]2C(=O)N[C@@H](C(C)C)C(=O)N(C)[C@@H](Cc2ccccc2)C(=O)N[C@@H](Cc2ccc(O)cc2)C(=O)N(C)CC(=O)N[C@@H](Cc2c[nH]c3ccccc23)C(=O)N[C@@H](Cc2ccc(O)cc2)C(=O)N[C@@H](CC(C)C)C(=O)N[C@H](C(=O)NCC(N)=O)CSCC(=O)N[C@@H](Cc2ccccc2)C(=O)N(C)[C@@H](Cc2ccccc2)C(=O)N1C [Example 3173] (HELM PEPTIDE1{[O=C(C[*:3])[*:2]].F.[meF].[CCCC[C@@H](C(=O)[*:2])N(C)[*:1]].[dP].P.V.[meF].Y.[Sar].W.Y.L.C.G.[am]}$PEPTIDE1,PEPTIDE1,1:R3-14:R3$$$V2.0)	< 7.52	7.14 to 8.32	–	–

— patent US9850283B2, “Macrocyclic inhibitors of the PD-1/PD-L1 and CD80(B7-1)/PD-L1 protein/protein interactions” (BRISTOL-MYERS SQUIBB COMPANY, priority 2013, dated 2017)
